Source: patent publication US20060063810A1, “Combination treatment for impaired motor function in parkinson's disease” (priority 2003, published 2006)

How the values were obtained:
parkinsonian patients = settings: in vivo; cited from earlier work
HD patients = settings: cited from earlier work
[1] = tested on: Parkinson Disease patients suffering from severe bradykinesia and motor fluctuations (dyskinesias) induced by L-Dopa therapy; test: Double-blind, randomized, placebo-controlled clinical study of AMN lead-in followed by add-on CIT (Example 9, Method B); format: in vivo, human; settings: patients 1, 2 and 4; first four visits; three weeks of treatment with amantadine only
Description: The study is conducted in a double-blind, randomized, placebo-controlled, parallel-group design, with 2 treatment phases: 3 weeks open label, up -titration amantadine lead-in phase, follow by a 6 weeks add-on citalopram phase; performed in Parkinson Disease patients suffering from severe bradykinesia and motor fluctuations—dyskinesias—induced by L-Dopa therapy.
Amantadine Hydrochloride: 50 mg arnantadine hydrochloride is administered as a b.i.d. regimen during 1 week. Up titration to 100 mg amantadine hydrochloride administered as a b.i.d. regimen during the second week. Up titration to 150 mg amantadine hydrochloride administered as a b.i.d. regimen during the third week. […]
The total score for UPDRS subscale IV is employed to evaluate the severity and characteristics of L-Dopa induced dyskinesias. The total score is calculated as the sum of all scores assigned in the dyskinesia items: 32, 33, 34 and 35; the clinical fluctuations items (calculated as the sum of all scores assigned in items 36, 38 and 39). Items 32, 33, 34 and 35 are recorded according to historical information and item 33 is also modified by office examination. […]
The total score of the subscale III of the UPDRS is employed to examine parkinsonian symptoms. Motor functionality is assessed as the total motor score calculated as the sum of all scores assigned in items 18, 19, 20, 21, 22, 23, 24, 25, 26, 27, 28, 29, 30 and 31. […]

Parkinson's disease = settings: in vivo; cited from earlier work
dyskinesia = settings: normal therapeutic (anti-anxiolytic) levels; cited from earlier work
[2] = tested on: single Parkinson's patient; settings: citalopram added to the anti-Parkinson's drug regime of a single patient; cited from earlier work
[3] = tested on: patients suffering from different types of tremors; settings: human, in vivo; cited from earlier work

## CC(C)(C)N1CCC(c2ccccc2)(c2ccccc2)CC1 [Budipine, 1-Tert-butyl-4,4-diphenylpiperidine]
Parkinsonian patients
  akinesia, rigidity, and tremor: significantly reduces akinesia, rigidity, and tremor
  time to optimal effects after starting treatment: 4-6 weeks

## NC12CC3CC(CC(C3)C1)C2 [amantadine]
HD patients; after 6 and 12 months of therapy
  neuropsychologic and psychiatric assessments: No changes
HD patients; eight HD patients, oral amantadine 100 mg tid, unblinded, 1-year period, p<0.01
  dyskinesias: significant reduction of dyskinesias
[1]
  UPDRS III scores (motor performance): improvement in motor performance
  UPDRS IV scores (severity and characteristics of L-Dopa induced dyskinesias, motor fluctuations): improvement in motor fluctuations

## O=C1CC2(CCCC2)CC(=O)N1CCCCN1CCN(c2ncccn2)CC1 [buspirone]
Parkinson's disease
  treatment of Parkinson's disease: ineffective
dyskinesia
  effect on dyskinesia: no different than placebo

## CN(C)CCCC1(c2ccc(F)cc2)OCc2cc(C#N)ccc21 (stereo not shown) [citalopram]
[2]
  motor symptoms: worsened their motor symptoms

## O=c1n(CCCN2CCN(c3cccc(Cl)c3)CC2)nc2ccccn12 [trazodone]
[3]
  tremors: significantly reduced tremors
